{"source": "patent US20230240297A1", "about": "“SELECTIVE HERBICIDES BASED ON SUBSTITUTED ISOXAZOLIN CARBOXAMIDES AND CYPROSULFAMIDE” (Bayer Aktiengesellschaft, priority 2020, published 2023)", "format_in_all_cases": "in vivo, maize", "key": {"[1]": {"tested_on": "ZEAMA Sileno", "test": "Seed treatment with safener; pre-emergence herbicide application", "settings": "for Reduction [%] / Reduction [Difference]: HER 40 g a.i./ha, cyprosulfamide 0.25 g a.i./kg seed; for HER effect + SAF / HER effect: HER dose 40 g a.i./ha pre-emergence; for HER effect + SAF: cyprosulfamide seed treatment 0.25 g a.i./kg seed; for HER effect: no safener", "description": "For the safener seed treatment, sufficient seeds of the respective crops (spring wheat, TRZAS; spring barley, HORVS; maize, ZEAMA) were weighed into screw top glass bottles approximately twice the volume of the seeds.\nThe specified safeners, formulated as wettable powder (WP) were weighed out so that the specified rates (g a.i./kg seed) would be obtained, dissolved in water (1 ml water per 10 g of seeds), and added to the seeds to produce a slurry.\nThe bottles were capped and then placed in an overhead shaker (set at medium speed for ca. 60 minutes) so that the seeds were evenly coated with the slurry. The bottles were uncapped and the seeds were either placed on paper and dried for an interval of 3-4 hours prior to sowing, or directly sown. Seeds were placed in sandy loam soil in pots of a diameter of 7-8 cm, and covered with soil.\nPre-emergence application of the specified herbicides was done subsequently, on two sets of plants: • a) seed treatment with safener, as described above • b) no safener treatment\nThe herbicides were formulated as WP and was sprayed onto the soil surface as an aqueous suspension at an equivalent water application rate of 300 1/ha.\nAfter application, the test plants were kept in the greenhouse under good growth conditions. At intervals up to 4 weeks after application (=28 days after treatment; DAT), % crop damage observed on the treated plants was scored visually in comparison to control plants that had not received any safener or herbicide treatment.\nValues in the table below are mean values of at least 2 replicates."}, "[2]": {"tested_on": "ZEAMA Sileno", "test": "Tank-mix; post-emergence, crop damage with and without safener", "in_short": "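Crops in sandy loam in the greenhouse were sprayed at the 1–3-leaf stage, 2–3 weeks after sowing, with herbicide/safener combinations or the single actives at various dosages in 300 l/ha water. Injury was scored visually 1–3 weeks after treatment as % versus untreated plants (0% none, 100% complete kill).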"}, "[3]": {"tested_on": "ZEAMA Sileno", "test": "Treatment 1 day before (safener applied one day before herbicide, post-emergence)", "parameters": "key to Reduction [Difference]: percentage points of visually scored % crop damage vs untreated control", "source_text": "Seeds of crops (spring wheat, TRZAS; spring barley, HORVS; maize, ZEAMA) were placed in sandy loam soil in pots of a diameter of 7-8 cm, covered with soil, and cultivated in a greenhouse under good growth conditions until plants were at the 1-3 leaf stage (BBCH 11-13). For split safener and herbicide treatment, first the safener was applied followed by the herbicide treatment on the following day. The safener and herbicides were formulated as WP and sprayed onto the green parts of the plants as an aqueous suspension at an equivalent water application rate of 300 1/ha, with addition of wetting agent and adjuvants (e.g. Mero, 1.5 1/ha; ammonium sulphate, 2 kg/ha). An equivalent set of plants was treated with the herbicides but without the prior safener treatment.\nAfter application, the test plants were kept in the greenhouse under good growth conditions. 10 and 21 days after treatment (DAT) with the herbicide, % crop damage observed on the treated plants was scored visually in comparison to control plants that had not received any safener or herbicide treatment."}, "[4]": {"tested_on": "ZEAMA Sileno", "test": "Seed treatment with safener; post-emergence herbicide application", "parameters": "Reduction [Difference]: scale not given here", "settings": "Final assessment; for Reduction [%] / Reduction [Difference]: Cyprosulfamide 0.5 g a.i./kg seed; for Reduction [Difference]: damage without safener - damage with safener; for HER effect + SAF (crop damage with safener): Cyprosulfamide seed treatment 0.5 g a.i./kg seed; for HER effect (crop damage, herbicide without safener): no safener", "in_short": "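Maize seeds slurry-coated with WP safener (g a.i./kg seed) or left untreated, sown in sandy loam and grown in greenhouse. WP herbicide sprayed post-emergence at BBCH11-13 in 300 l/ha water with wetting agent and adjuvants (e.g. Mero 1.5 l/ha, ammonium sulphate 2 kg/ha); means of at least 2 replicates.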"}, "[5]": {"settings": "HER 8 g a.i./ha, cyprosulfamide 100 g a.i./ha 1 day before"}}}
{"smiles": "C=CC1(C(=O)NC2COC(C(=O)OC)C2)CC(c2cc(F)cc(F)c2)=NO1", "note": "(mixture of isomers) [Example 1.68]", "values": [{"measurement": "Reduction [%]", "setting": "[1]; 14 DAT", "value": 41, "unit": "%"}, {"measurement": "Reduction [Difference]", "setting": "[1]; 14 DAT", "value": 38}, {"measurement": "Reduction [%]", "setting": "[1]; 26 DAT", "value": 58, "unit": "%"}, {"measurement": "Reduction [Difference]", "setting": "[1]; 26 DAT", "value": 55}, {"measurement": "HER effect + SAF", "setting": "[1]; 14 DAT", "value": 55, "unit": "%"}, {"measurement": "HER effect + SAF", "setting": "[1]; 26 DAT", "value": 40, "unit": "%"}, {"measurement": "HER effect", "setting": "[1]; 14 DAT", "value": 93, "unit": "%"}, {"measurement": "HER effect", "setting": "[1]; 26 DAT", "value": 95, "unit": "%"}, {"measurement": "Reduction [%]", "setting": "[2]; HER 2 g a.i./ha, cyprosulfamide 50 g a.i./ha", "value": 67, "unit": "%"}, {"measurement": "Reduction [Difference]", "setting": "[2]; HER 2 g a.i./ha, cyprosulfamide 50 g a.i./ha, damage without safener - damage with safener", "value": 40}, {"measurement": "HER effect + SAF", "setting": "[2]; HER dose 2 g a.i./ha + cyprosulfamide 50 g a.i./ha tank-mix, Final assessment", "value": 20, "unit": "%"}, {"measurement": "HER effect", "setting": "[2]; HER dose 2 g a.i./ha, no safener, Final assessment, 0% = no injury, 100% = complete kill", "value": 60, "unit": "%"}, {"measurement": "Reduction [%]", "setting": "[3]; [5]", "value": 69, "unit": "%"}, {"measurement": "Reduction [Difference]", "setting": "[3]; [5]", "value": 68}, {"measurement": "HER effect + SAF", "setting": "[3]; HER dose 8 g a.i./ha, cyprosulfamide 100 g a.i./ha applied 1 day before, Final assessment", "value": 30, "unit": "%"}, {"measurement": "HER effect", "setting": "[3]; HER dose 8 g a.i./ha, no safener, Final assessment", "value": 98, "unit": "%"}, {"measurement": "Reduction [%]", "setting": "[4]; HER dose 2 g a.i./ha", "value": 83, "unit": "%"}, {"measurement": "Reduction [Difference]", "setting": "[4]; HER dose 2 g a.i./ha", "value": 50}, {"measurement": "HER effect + SAF (crop damage with safener)", "setting": "[4]; HER dose 2 g a.i./ha", "value": 10, "unit": "%"}, {"measurement": "HER effect (crop damage, herbicide without safener)", "setting": "[4]; HER dose 2 g a.i./ha", "value": 60, "unit": "%"}, {"measurement": "Reduction [%]", "setting": "[4]; HER dose 8 g a.i./ha", "value": 74, "unit": "%"}, {"measurement": "Reduction [Difference]", "setting": "[4]; HER dose 8 g a.i./ha", "value": 73}, {"measurement": "HER effect + SAF (crop damage with safener)", "setting": "[4]; HER dose 8 g a.i./ha", "value": 25, "unit": "%"}, {"measurement": "HER effect (crop damage, herbicide without safener)", "setting": "[4]; HER dose 8 g a.i./ha", "value": 98, "unit": "%"}, {"measurement": "Reduction [%]", "setting": "[4]; HER dose 32 g a.i./ha", "value": 69, "unit": "%"}, {"measurement": "Reduction [Difference]", "setting": "[4]; HER dose 32 g a.i./ha", "value": 68}, {"measurement": "HER effect + SAF (crop damage with safener)", "setting": "[4]; HER dose 32 g a.i./ha", "value": 30, "unit": "%"}, {"measurement": "HER effect (crop damage, herbicide without safener)", "setting": "[4]; HER dose 32 g a.i./ha", "value": 98, "unit": "%"}]}
